In ChEMBL document CHEMBL1140860, “Synthesis and evaluation of dihydroartemisinin and dihydroartemisitene acetal dimers showing anticancer and antiprotozoal activity” (Bioorg Med Chem, 2009):

What was measured:
[1] = test system: 786-0; experiment: Growth inhibition of human 786-0 cells after 48 hrs by sulforhodamine B assay; assay type: functional; conditions: 786-0, 48 h
[2] = test system: HOP-62; experiment: Growth inhibition of human HOP62 cells after 48 hrs by sulforhodamine B assay; assay type: functional; conditions: HOP-62, 48 h
[3] = test system: HOP-92; experiment: Growth inhibition of human HOP92 cells after 48 hrs by sulforhodamine B assay; assay type: functional; conditions: HOP-92, 48 h
[4] = test system: MOLT-4; experiment: Growth inhibition of human MOLT4 cells after 48 hrs by sulforhodamine B assay; assay type: functional; conditions: MOLT-4, 48 h
[5] = test system: HT-29; experiment: Growth inhibition of human HT-29 cells after 48 hrs by sulforhodamine B assay; assay type: functional; conditions: HT-29, 48 h
[6] = test system: SF-295; experiment: Growth inhibition of human SF295 cells after 48 hrs by sulforhodamine B assay; assay type: functional; conditions: SF-295, 48 h
[7] = test system: Malme-3M; experiment: Growth inhibition of human MALME-3M cells after 48 hrs by sulforhodamine B assay; assay type: functional
[8] = test system: SR; experiment: Growth inhibition of human SR cells after 48 hrs by sulforhodamine B assay; assay type: functional
[9] = test system: SNB-19; experiment: Growth inhibition of human SNB19 cells after 48 hrs by sulforhodamine B assay; assay type: functional; conditions: SNB-19, 48 h
[10] = test system: A498; experiment: Growth inhibition of human A498 cells after 48 hrs by sulforhodamine B assay; assay type: functional; conditions: A498, 48 h
[11] = Cytotoxicity against african green monkey Vero cells after 48 hrs by neutral red assay; assay type: cell-based; conditions: chlorocebus sabaeus, read-out: TC50
[12] = test system: CCRF-CEM; experiment: Growth inhibition of human CCRF-CEM cells after 48 hrs by sulforhodamine B assay; assay type: functional
[13] = test system: BT-549; experiment: Growth inhibition of human BT549 cells after 48 hrs by sulforhodamine B assay; assay type: functional; conditions: BT-549, 48 h
[14] = test system: SF-539; experiment: Growth inhibition of human SF539 cells after 48 hrs by sulforhodamine B assay; assay type: functional; conditions: SF-539, 48 h
[15] = Selectivity index, ratio of TC50 for african green monkey (Cercopithecus aethiops) Vero cells to IC50 for chloroquine-sensitive Plasmodium falciparum D6; assay type: toxicity, cell-based
[16] = test system: SNB-75; experiment: Growth inhibition of human SNB75 cells after 48 hrs by sulforhodamine B assay; assay type: functional; conditions: SNB-75, 48 h
[17] = test system: MDA-MB-435; experiment: Growth inhibition of human MDA-MB-435 cells after 48 hrs by sulforhodamine B assay; assay type: functional; conditions: MDA-MB-435, 48 h
[18] = test system: NCI-H23; experiment: Growth inhibition of human NCI-H23 cells after 48 hrs by sulforhodamine B assay; assay type: functional; conditions: NCI-H23, 48 h
[19] = test system: NCI/ADR-RES; experiment: Growth inhibition of human NCI/ADR-RES cells after 48 hrs by sulforhodamine B assay; assay type: functional
[20] = test system: M14; experiment: Growth inhibition of human M14 cells after 48 hrs by sulforhodamine B assay; assay type: functional; conditions: M14, 48 h
[21] = test system: UO-31; experiment: Growth inhibition of human UO31 cells after 48 hrs by sulforhodamine B assay; assay type: functional; conditions: UO-31, 48 h
[22] = test system: TK-10; experiment: Growth inhibition of human TK10 cells after 48 hrs by sulforhodamine B assay; assay type: functional; conditions: TK-10, 48 h
[23] = Selectivity index, ratio of TC50 for african green monkey (Cercopithecus aethiops) Vero cells to IC50 for chloroquine-resistant Plasmodium falciparum W2; assay type: toxicity, cell-based
[24] = test system: K562; experiment: Growth inhibition of human K562 cells after 48 hrs by sulforhodamine B assay; assay type: functional; conditions: K562, 48 h
[25] = test system: SF-268; experiment: Growth inhibition of human SF268 cells after 48 hrs by sulforhodamine B assay; assay type: functional; conditions: SF-268, 48 h
[26] = test system: MDA-N; experiment: Growth inhibition of human MDA-N cells after 48 hrs by sulforhodamine B assay; assay type: functional
[27] = test system: LOX IMVI; experiment: Growth inhibition of human LOXIMVI cells after 48 hrs by sulforhodamine B assay; assay type: functional
[28] = test system: SK-MEL-2; experiment: Growth inhibition of human SK-MEL-2 cells after 48 hrs by sulforhodamine B assay; assay type: functional; conditions: SK-MEL-2, 48 h
[29] = test system: HL-60; experiment: Growth inhibition of human HL-60(TB) cells after 48 hrs by sulforhodamine B assay; assay type: functional; conditions: HL-60, 48 h
[30] = test system: UACC-257; experiment: Growth inhibition of human UACC257 cells after 48 hrs by sulforhodamine B assay; assay type: functional; conditions: UACC-257, 48 h
[31] = test system: SK-MEL-5; experiment: Growth inhibition of human SK-MEL-5 cells after 48 hrs by sulforhodamine B assay; assay type: functional; conditions: SK-MEL-5, 48 h
[32] = test system: MCF7; experiment: Growth inhibition of human MCF7 cells after 48 hrs by sulforhodamine B assay; assay type: functional; conditions: MCF7, 48 h
[33] = test system: A549; experiment: Growth inhibition of human A549 cells after 48 hrs by sulforhodamine B assay; assay type: functional; conditions: A549, 48 h
[34] = test system: UACC-62; experiment: Growth inhibition of human UACC62 cells after 48 hrs by sulforhodamine B assay; assay type: functional; conditions: UACC-62, 48 h
[35] = test system: OVCAR-5; experiment: Growth inhibition of human OVCAR5 cells after 48 hrs by sulforhodamine B assay; assay type: functional; conditions: OVCAR-5, 48 h
[36] = test system: SW-620; experiment: Growth inhibition of human SW620 cells after 48 hrs by sulforhodamine B assay; assay type: functional; conditions: SW-620, 48 h
[37] = test system: HCT-15; experiment: Growth inhibition of human HCT15 cells after 48 hrs by sulforhodamine B assay; assay type: functional; conditions: HCT-15, 48 h
[38] = test system: Plasmodium falciparum; experiment: Antimalarial activity after 72 hrs against chloroquine-resistant Plasmodium falciparum W2 infected erythrocytes by LDH assay; assay type: functional, organism-based; conditions: W2, 72 h
[39] = test system: PC-3; experiment: Growth inhibition of human PC3 cells after 48 hrs by sulforhodamine B assay; assay type: functional; conditions: PC-3, 48 h
[40] = test system: T47D; experiment: Growth inhibition of human T47D cells after 48 hrs by sulforhodamine B assay; assay type: functional
[41] = test system: RXF 393; experiment: Growth inhibition of human RXF393 cells after 48 hrs by sulforhodamine B assay; assay type: functional; conditions: RXF 393, 48 h
[42] = test system: U-251; experiment: Growth inhibition of human U251 cells after 48 hrs by sulforhodamine B assay; assay type: functional; conditions: U-251, 48 h
[43] = test system: MDA-MB-231; experiment: Growth inhibition of human MDA-MB-231 cells after 48 hrs by sulforhodamine B assay; assay type: functional; conditions: MDA-MB-231, 48 h
[44] = test system: OVCAR-4; experiment: Growth inhibition of human OVCAR4 cells after 48 hrs by sulforhodamine B assay; assay type: functional; conditions: OVCAR-4, 48 h
[45] = test system: NCI-H460; experiment: Growth inhibition of human NCI-H460 cells after 48 hrs by sulforhodamine B assay; assay type: functional; conditions: NCI-H460, 48 h
[46] = test system: OVCAR-3; experiment: Growth inhibition of human OVCAR-3 cells after 48 hrs by sulforhodamine B assay; assay type: functional; conditions: OVCAR-3, 48 h
[47] = test system: EKVX; experiment: Growth inhibition of human EKVX cells after 48 hrs by sulforhodamine B assay; assay type: functional
[48] = test system: Plasmodium falciparum; experiment: Antimalarial activity after 72 hrs against chloroquine-sensitive Plasmodium falciparum D6 infected in erythrocytes by LDH assay; assay type: functional, organism-based; conditions: D6, 72 h
[49] = test system: NCI-H226; experiment: Growth inhibition of human NCI-H226 cells after 48 hrs by sulforhodamine B assay; assay type: functional; conditions: NCI-H226, 48 h
[50] = test system: KM12; experiment: Growth inhibition of human KM12 cells after 48 hrs by sulforhodamine B assay; assay type: functional; conditions: KM12, 48 h

C[C@H]1[C@H](OCCO[C@H]2O[C@@H]3O[C@@]4(C)CC[C@H]5[C@H](C)CC[C@@H]([C@H]2C)[C@@]35OO4)O[C@@H]2O[C@@]3(C)CC[C@H]4[C@H](C)CC[C@@H]1[C@@]24OO3 gave a GI50 [1] of 0.324 µM, a GI50 [2] of 11.6 µM and a GI50 [3] of 0.052 µM. It also gave a GI50 [4] of 0.015 µM, a GI50 [5] of 0.038 µM and a GI50 [6] of 1.1 µM. The GI50 [7] was 0.235 µM, the GI50 [8] was 0.025 µM and the GI50 [9] was 8.26 µM. It also gave a GI50 [10] of 8.11 µM, a CC50 at 48 h [11] greater than 800 µM and a GI50 [12] of 0.025 µM. The GI50 [13] was 0.074 µM, the GI50 [14] was 0.063 µM and the selectivity ratio [15] was greater than 25. It also gave a GI50 [16] of 0.366 µM, a GI50 [17] of 0.045 µM and a GI50 [18] of 0.036 µM. For the same compound, the GI50 [19] was 0.055 µM, the GI50 [20] was 7.6 µM and the GI50 [21] was 0.035 µM. It also gave a GI50 [22] of 0.064 µM, a selectivity ratio [23] greater than 37 and a GI50 [24] of 0.02 µM. The GI50 [25] was 7.54 µM, the GI50 [26] was 0.061 µM and the GI50 [27] was 0.03 µM. The GI50 [28] was 0.212 µM, the GI50 [29] was 0.015 µM and the GI50 [30] was 0.054 µM. It also gave a GI50 [31] of 0.034 µM, a GI50 [32] of 0.028 µM and a GI50 [33] of 0.059 µM. For the same compound, the GI50 [34] was 0.072 µM, the GI50 [35] was 0.059 µM and the GI50 [36] was 0.025 µM. The GI50 [37] was 0.017 µM, the IC50 [38] was 21.9 µM and the GI50 [39] was 0.022 µM. It also gave a GI50 [40] of 0.016 µM, a GI50 [41] of 0.054 µM and a GI50 [42] of 0.049 µM. It also gave a GI50 [43] of 0.534 µM, a GI50 [44] of 0.041 µM and a GI50 [45] of 0.046 µM. It also gave a GI50 [46] of 1.28 µM, a GI50 [47] of 0.04 µM and an IC50 [48] of 31.9 µM. The GI50 [49] was 9.54 µM and the GI50 [50] was 0.033 µM.

For C[C@H]1[C@@H](OCC(=O)CO[C@H]2O[C@@H]3O[C@@]4(C)CC[C@H]5[C@H](C)CC[C@@H]([C@H]2C)[C@@]35OO4)O[C@@H]2O[C@@]3(C)CC[C@H]4[C@H](C)CC[C@@H]1[C@@]24OO3, the GI50 [1] was 0.093 µM, the GI50 [2] was 11.9 µM and the GI50 [3] was 0.021 µM. The GI50 [4] was less than 0.01 µM, the GI50 [5] was less than 0.01 µM and the GI50 [6] was 7.24 µM. It also gave a GI50 [7] of less than 0.01 µM, a GI50 [8] of less than 0.01 µM and a GI50 [9] of 13.3 µM. It also gave a GI50 [10] of 15.4 µM, a CC50 at 48 h [11] greater than 7640 µM and a GI50 [12] of less than 0.01 µM. The GI50 [13] was 0.29 µM, the GI50 [14] was 10.1 µM and the selectivity ratio [15] was greater than 6800. For the same compound, the GI50 [16] was 0.015 µM, the GI50 [17] was 0.017 µM and the GI50 [18] was less than 0.01 µM. The GI50 [19] was 0.04 µM, the GI50 [20] was less than 0.01 µM and the GI50 [21] was less than 0.01 µM. For the same compound, the GI50 [22] was 0.278 µM, the selectivity ratio [23] was greater than 23800 and the GI50 [24] was less than 0.01 µM. It also gave a GI50 [25] of 2.03 µM, a GI50 [26] of 0.026 µM and a GI50 [27] of less than 0.01 µM. It also gave a GI50 [28] of 0.031 µM, a GI50 [29] of less than 0.01 µM and a GI50 [30] of less than 0.01 µM. It also gave a GI50 [31] of less than 0.01 µM, a GI50 [32] of less than 0.01 µM and a GI50 [33] of less than 0.01 µM. For the same compound, the GI50 [34] was less than 0.01 µM, the GI50 [35] was less than 0.01 µM and the GI50 [36] was less than 0.01 µM. It also gave a GI50 [37] of less than 0.01 µM, an IC50 [38] of 0.3 µM and a GI50 [39] of less than 0.01 µM. It also gave a GI50 [40] of less than 0.01 µM, a GI50 [41] of 12.6 µM and a GI50 [42] of less than 0.01 µM. For the same compound, the GI50 [43] was 3.33 µM, the GI50 [44] was 0.069 µM and the GI50 [45] was less than 0.01 µM. For the same compound, the GI50 [46] was less than 0.01 µM, the GI50 [47] was 0.078 µM and the IC50 [48] was 1.1 µM. It also gave a GI50 [49] of 0.331 µM and a GI50 [50] of less than 0.01 µM.
